tested on: Glo-Response ARE-luc2P HEK293 cell line; experiment: ARE luciferase reporter cell-based assay; conditions: Homo sapiens, HEK293, 24 h, average of results obtained;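 note: luciferase signal tracks Nrf2 activation of the ARE once compounds disrupt KEAP1-Nrf2 binding, read with One-Glo reagent, DMSO serving as low control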

Row | Compound | EC50
1 | Cc1cnc2c(c1)S(=O)(=O)N(Cc1cc([C@@H](c3ccn4c(C(F)(F)F)nnc4c3C)C(C)C(=O)O)ccc1C)C[C@@H]1CCCCN21 (relative stereo) [Example 514, (3*S)-2-Methyl-3-(4-methyl-3-(((*S)-3-methyl-5,5-dioxido-7,7a,8,9,10,11-hexahydro-6H-dipyrido[2,1-d:2′,3′-f][1,2,5]thiadiazepin-6-yl)methyl)phenyl)-3-(8-methyl-3-(trifluoromethyl)-[1,2,4]triazolo[4,3-a]pyridin-7-yl)propanoic Acid] | 1.7 nM
2 | Cc1cnc2c(c1)S(=O)(=O)N(Cc1cc(C(c3ccn4c(C(F)(F)F)nnc4c3C)C(C)(C)C(=O)O)ccc1C)CC1(CC1)O2 (stereo not drawn) [Example 313, 2,2-Dimethyl-3-(4-methyl-3-((8′-methyl-1′,1′-dioxidospiro[cyclopropane-1,4′-pyrido[2,3-b][1,4,5]oxathiazepin]-2′(3′H)-yl)methyl)phenyl)-3-(8-methyl-3-(trifluoromethyl)-[1,2,4]triazolo[4,3-a]pyridin-7-yl)propanoic Acid] | 1.1 nM
3 | Cc1ccc([C@@H](c2ccn3c(C(F)(F)F)nnc3c2C)C(C)(C)C(=O)O)cc1CN1CC2(CCOCC2)Oc2nc(NCCCO)ccc2S1(=O)=O (single isomer, unassigned) [Example 115, (*S)-3-(3-((7′-((3-Hydroxypropyl)amino)-1′,1′-dioxido-2,3,5,6-tetrahydrospiro[pyran-4,4′-pyrido[2,3-b][1,4,5]oxathiazepin]-2′(3′H)-yl)methyl)-4-methylphenyl)-2,2-dimethyl-3-(8-methyl-3-(trifluoromethyl)-[1,2,4[triazolo[4,3-a]pyridine-7-yl)propanoic Acid] | 133 nM
4 | Cc1cnc([C@H](c2ccn3c(C(F)F)nnc3c2C)C(C)(C)C(=O)O)cc1CN1CC2(CCOCC2)Oc2nc(OCCN3CCCCC3)c(C)cc2S1(=O)=O (single isomer, unassigned) [Example 641, (*R)-3-(3-(Difluoromethyl)-8-methyl-[1,2,4]triazolo[4,3-a]pyridin-7-yl)-2,2-dimethyl-3-(5-methyl-4-((8′-methyl-1′,1′-dioxido-7′-(2-(piperidin-1-yl)ethoxy)-2,3,5,6-tetrahydrospiro[pyran-4,4′-pyrido[2,3-b][1,4,5]oxathiazepin]-2′(3′H)-yl)methyl)pyridin-2-yl)propanoic Acid] | 2290 nM
5 | Cc1cnc2c(c1)S(=O)(=O)N(Cc1cc([C@@H](c3ccn4c(C(F)(F)F)nnc4c3C)C(C)(C)C(=O)O)ccc1C)CC1(CCOCC1)O2 (single isomer, unassigned) [Example 18, (*S)-2,2-Dimethyl-3-(4-methyl-3-((8′-methyl-1′,1′-dioxido-2,3,5,6-tetrahydrospiro[pyran-4,4′-pyrido[2,3-b][1,4,5]oxathiazepin]-2′(3′H)-yl)methyl)phenyl)-3-(8-methyl-3-(trifluoromethyl)-[1,2,4]triazolo[4,3-a]pyridin-7-yl)propanoic Acid] | 1.5 nM
6 | Cc1ccc([C@H](CC(=O)O)c2ccn3c(C(F)(F)F)nnc3c2C)cc1CN1C[C@H]2CCCCN2c2ncc(Cl)cc2S1(=O)=O (relative stereo) [Example 193, (*S)-3-(3-(((*R)-3-Chloro-5,5-dioxido-7,7a,8,9,10,11-hexahydro-6H-dipyrido[2,1-d:2′,3′-f][1,2,5]thiadiazepin-6-yl)methyl)-4-methylphenyl)-3-(8-methyl-3-(trifluoromethyl)-[1,2,4]triazolo[4,3-a]pyridin-7-yl)propanoic Acid] | 1.7 nM
7 | CCn1nnc2c(C)c([C@H](c3ccc(C)c(CN4CC5(CCOCC5)Oc5ncc(C)cc5S4(=O)=O)c3)C(C)(C)C(=O)O)ccc21 (single isomer, unassigned) [Example 421, (*R)-3-(1-ethyl-4-methyl-1H-benzo[d][1,2,3]triazol-5-yl)-2,2-dimethyl-3-(4-methyl-3-((8′-methyl-1′,1′-dioxido-2,3,5,6-tetrahydrospiro[pyran-4,4′-pyrido[2,3-b][1,4,5]oxathiazepin]-2′(3′H)-yl)methyl)phenyl)propanoic Acid] | 0.24 nM
8 | CCc1c([C@H](c2ccc(C)c(CN3C[C@@H]4CCCCN4c4ncc(C)cc4S3(=O)=O)c2)C(C)C(=O)O)ccn2c(C(F)(F)F)nnc12 (relative stereo) [Example 513, (3*S)-3-(8-Ethyl-3-(trifluoromethyl)-[1,2,4]triazolo[4,3-a]pyridin-7-yl)-2-methyl-3-(4-methyl-3-(((*S)-3-methyl-5,5-dioxido-7,7a,8,9,10,11-hexahydro-6H-dipyrido[2,1-d:2′,3′-f][1,2,5]thiadiazepin-6-yl)methyl)phenyl)propanoic Acid] | 1.63 nM
9 | Cc1cc2cc([C@H](c3ccc(C)c(CN4CC5(CC5)Oc5nc(OCCN6CCCC6)c(C)cc5S4(=O)=O)c3)C(C)(C)C(=O)O)n(C)c2nn1 (single isomer, unassigned) [Example 353, (*R)-3-(3,7-Dimethyl-7H-pyrrolo[2,3-c]pyridazine-6-yl)-2,2-dimethyl-3-(4-methyl-3-((8′-methyl-1′,1′-dioxido-7′-(2-(pyrrolidin-1-yl)-ethoxy)spiro[cyclopropane-1,4′-pyrido[2,3-b][1,4,5]oxathiazepin]-2′-(3′H)-yl)methyl)phenyl)propanoic Acid] | 1410 nM
10 | Cc1ccc([C@H](CC(=O)O)c2ccn3c(C(F)F)nnc3c2C)cc1CN1CC2(CCOCC2)Oc2ccc(F)cc2S1(=O)=O (single isomer, unassigned) [Example 524, (*S)-3-(3-(Difluoromethyl)-8-methyl-[1,2,4]triazolo[4,3-a]pyridin-7-yl)-3-(3-((8-fluoro-1,1-dioxido-2′,3′,5′,6′-tetrahydrospiro[benzo[b][1,4,5]oxathiazepine-4,4′-pyran]-2(3H)-yl)methyl)-4-methylphenyl)propanoic Acid] | 19.7 nM
11 | Cc1c([C@@H](CC(=O)O)c2ccc(Cl)c(CN3CC4(COC4)Oc4ccccc4S3(=O)=O)c2)ccn2c(C(F)(F)F)nnc12 (single isomer, unassigned) [Example 97, (*S)-3-(4-Chloro-3-((1′,1′-dioxoidospiro[benzo[b]]oxethiazepine-4,3′-oxetan]-2(3H)-yl)methyl)phenyl)-3-(8-methyl-3-(trifluoromethyl)-[1,2,4]triazolo[4,3-a]pyridine-7-yl)propanoic Acid] | 5290 nM
12 | Cc1ccc([C@H](CC(=O)O)c2ccn3c(C(F)(F)F)nnc3c2C)cc1CN1C[C@@H]2CCCN2c2ncc(C#N)cc2S1(=O)=O (relative stereo) [Example 206, (*S)-3-(3-(((S)-3-Cyano-5,5-dioxido-7a,8,9,10-tetrahydropyrido[2,3-f]pyrrolo[2,1-d][1,2,5]thiadiazepin-6(7H)-yl)methyl)-4-methylphenyl)-3-(8-methyl-3-(trifluoromethyl)-[1,2,4]triazolo[4,3-a]pyridin-7-yl)propanoic Acid] | 14 nM
13 | CCc1c([C@H](c2ccc(C)c(CN3C[C@H]4CCCCN4c4ncc(C)cc4S3(=O)=O)c2)C(C)C(=O)O)ccn2c(C(F)(F)F)nnc12 (relative stereo) [Example 515, (3*S)-3-(8-Ethyl-3-(trifluoromethyl)-[1,2,4]triazolo[4,3-a]pyridin-7-yl)-2-methyl-3-(4-methyl-3-(((*R)-3-methyl-5,5-dioxido-7,7a,8,9,10,11-hexahydro-6H-dipyrido[2,1-d:2′,3′-f][1,2,5]thiadiazepin-6-yl)methyl)phenyl)propanoic Acid] | 1.33 nM
14 | Cc1ccc([C@H](CC(=O)O)c2ccn3c(C(F)(F)F)nnc3c2C)cc1CN1C[C@@H]2CCCCN2c2ccccc2S1(=O)=O (relative stereo) [Example 299, (*S)-3-(3-(((*S)-5,5-Dioxido-7,7a,8,9,10,11-hexahydro-6H-benzo[f]pyrido[2,1-d][1,2,5]thiadiazepin-6-yl)methyl)-4-methylphenyl)-3-(8-methyl-3-(trifluoromethyl)-[1,2,4]triazolo[4,3-a]pyridin-7-yl)propanoic Acid] | 11.4 nM
15 | Cc1ccc([C@H](CC(=O)O)c2ccn3c(C(F)(F)F)nnc3c2C)cc1CN1CC2(CC2)Oc2nc(Cl)ccc2S1(=O)=O (single isomer, unassigned) [Example 100, (*S)-3-(3-((7′-Chloro-1′,1′-dioxidospiro(cyclopropane-1.4′-pyrido[2,3-b][1,4,5]oxathiazepin]-2′(3′H)-yl)methyl)-4-methylphenyl)-3-(8-methyl-3-(trifluoromethyl)-[1,2,4]triazolo[4,3-a]pyridin-7-yl)propanoic Acid] | 13.3 nM
16 | Cc1cc2cc([C@@H](c3ccc(C)c(CN4CC5(CC5)Oc5nc(OCCN6CCCC6)c(C)cc5S4(=O)=O)c3)C(C)(C)C(=O)O)n(C)c2nn1 (single isomer, unassigned) [Example 352, (*S)-3-(3,7-Dimethyl-7H-pyrrolo[2,3-c]pyridazine-6-yl)-2,2-dimethyl-3-(4-methyl-3-((8′-methyl-1′,1′-dioxido-7′-(2-(pyrrolidin-1-yl)-ethoxy)spiro[cyclopropane-1,4′-pyrido[2,3-b][1,4,5]oxathiazepin]-2′,(3′H)-yl)methyl)phenyl)propanoic Acid] | 43.7 nM
17 | Cc1cc2cc([C@H](c3ccc(C)c(CN4CC5(CCOCC5)Oc5nc(OCCN6CCCCC6)c(C)cc5S4(=O)=O)c3)C(C)(C)C(=O)O)n(C)c2nn1 (single isomer, unassigned) [Example 349, (*R)-3-(3,7-Dimethyl-7H-pyrrolo[2,3-c]pyridazine-6-yl)-2,2-dimethyl-3-(4-methyl-3-((8′-methyl-1′,1′-dioxido-7′-(2-(piperidine-1-yl)-ethoxy)2,3,5,6-tetrahydrospiro[pyran-4,4′-pyrido[2,3-b][1,4,5]oxathiazepin]-2′,(3′H)-yl)methyl)phenyl)propanoic Acid] | 1540 nM
18 | Cc1ccc([C@@H](c2ccn3c(C(F)(F)F)nnc3c2C)C(C)C(=O)O)cc1CN1CC2(CCOCC2)Oc2ccc(F)cc2S1(=O)=O (single isomer, unassigned) [Example 416, (3S*)-3-(3-((8-fluoro-1,1-dioxido-2′,3′,5′,6′-tetrahydrospiro[benzo[b][1,4,5]oxathiazepine-4,4′-pyran]-2(3H)-yl)methyl)-4-methylphenyl)-2-methyl-3-(8-methyl-3-(trifluoromethyl)-[1,2,4]triazolo[4,3-a]pyridin-7-yl)propanoic Acid] | 2.53 nM

From US10947252B2, “Inhibitors of KEAP1-Nrf2 protein-protein interaction” (Janssen Pharmaceutica NV, priority 2018, dated 2021)
